Experimental data from US7713968B2, “Substituted arylcyclopentenes as therapeutic agents” (Allergan, Inc., priority 2008, dated 2010).

System: lashes and adjacent hairs of the treated eye
Test: Observation of lashes in glaucoma patients treated with bimatoprost in one eye
Assay type: in vivo
Settings: glaucoma patient treated in only one eye
From the text: In the course of treating patients having glaucoma, treatment may only be appropriate in one eye. […] The lash appearance on the lids of the treated eyes would have appeared quite attractive if it represented a bilateral phenomenon. As a result of its asymmetric nature, the long lashes on one side could be construed as disturbing from a cosmetic standpoint. A systemic examination was preformed as a result of the asymmetric phenomenon. It soon became apparent that this altered appearance was not an isolated finding. […] Definite differences could be identified to varying degrees in the lashes and adjacent hairs of all patients who were taking the drug on a unilateral basis for longer than 6 months.
The changes in the lashes were apparent on gross inspection in several patients once attention was focused on the issue. In those with light colored hair and lashes, the differences were only seen easily with the aid of the high magnification and lighting capabilities of the slit lamp biomicroscope. In the course of glaucoma follow-up examination, attention is generally immediately focused on the eye itself. As a result of the high power magnification needed only one eye is seen at a time and the eye is seen at a high enough power that the lashes are not in focus. […]

CCNC(=O)CCC/C=C\C[C@@H]1[C@@H](/C=C/[C@@H](O)CCc2ccccc2)[C@H](O)C[C@@H]1O [bimatoprost]
lashes in the treated eye compared with the non-treated eye: longer, thicker, and fuller
